From publication PMC11851430, “Workflow for E3 Ligase Ligand Validation for PROTAC Development” (ACS Chemical Biology, 2025)

Biological target: T1, kinase protein levels in MCF-7 cells (Homo sapiens, UniProt Q9BTL3)
T1 construct: endogenous in cells; host or cells: MCF-7
Test: TMT-labeled quantitative proteomics
Assay type: cell-based
Conditions: protein FAM103A1; MCF7; 1 µM; set5

T1 sequence (Q9BTL3 whole entry): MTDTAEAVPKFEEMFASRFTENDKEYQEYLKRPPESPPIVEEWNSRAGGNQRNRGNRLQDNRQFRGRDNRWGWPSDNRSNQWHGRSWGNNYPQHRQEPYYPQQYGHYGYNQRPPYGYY

For Cc1ncsc1-c1ccc(CNC(=O)[C@@H]2C[C@@H](O)CN2C(=O)[C@@H](NC(=O)CCCCCCN2CCN(c3ccc(Nc4ncc(Cl)c(Nc5ccccc5C(N)=O)n4)cc3)CC2)C(C)(C)C)cc1 [6-d], the “P.Value (compound/DMSO)” value was 0.1981 and the “log2FC (compound/DMSO)” value was -0.2114.
